In ChEMBL document CHEMBL1125918, “Synthesis of 3-carbamoylecgonine methyl ester analogues as inhibitors of cocaine binding and dopamine uptake” (J Med Chem, 1991):
pIC50: −log10 of the molar value.

species on record: Rattus norvegicus; experiment: Compound was evaluated in vitro, for the ability to inhibit [3H]- dopamine uptake into synaptosomes (prepared from rat striatal tissues).; type: functional; settings: Brain

Structure (SMILES) | pIC50
COC(=O)C1C2CC[C@H](C[C@@H]1OC(=O)Nc1cccc([N+](=O)[O-])c1)N2C (stereo partly specified) | 6.75
COC(=O)C1C2CC[C@H](C[C@@H]1OC(=O)Nc1ccc([N+](=O)[O-])cc1)N2C (stereo partly specified) | 5.24
COC(=O)C1C2CC[C@H](C[C@@H]1OC(=O)Nc1ccccc1)N2C (stereo partly specified) | 4.28
COC(=O)C1C2CC[C@H](C[C@@H]1OC(=O)Nc1ccc(N)cc1)N2C (stereo partly specified) | < 4.00
COC(=O)C1C2CC[C@H](C[C@@H]1OC(=O)Nc1cccc(N)c1)N2C (stereo partly specified) | 4.64
COC(=O)[C@H]1[C@@H](OC(=O)c2ccccc2)C[C@@H]2CC[C@H]1N2C [COCAINE] | 6.67
